Calls of active or inactive are those of the source. The rule behind the calls is not given here.
Tested on: not listed separately
Assay: Concentration required to inhibit glucosamine-6-phosphate synthase (GFAT) isolated from Candida albicans

Q: With `NC(CCCCCP(=O)(O)O)C(=O)O` (configuration not stated) [AP-7] as the compound, how does the IC50 read?
A: The IC50 was 270 µM.

Q: Which IC50 does the source give for `NC(CP(=O)(O)O)C(=O)O` (configuration not stated) here?
A: Its IC50 is 0.01 µM.

Q: Which IC50 does the source give for `O=C(O)[C@@H]1C[C@H](CP(=O)(O)O)CCN1` [SELFOTEL] here?
A: Its IC50 is 0.4 µM.

Q: With `NC(CCCCP(=O)(O)O)C(=O)O` (configuration not stated) as the compound, how does the IC50 read?
A: Its IC50 is 250 µM.

Q: For `NC(CCCP(=O)(O)O)C(=O)O` (configuration not stated), which IC50 is on record?
A: The IC50 was 210 µM.

Q: With `NC(CCP(=O)(O)O)C(=O)O` (configuration not stated) as the compound, how does the IC50 read?
A: Its IC50 is 10 µM.

Tested on: Saccharomyces cerevisiae
Assay: Inhibitory activity against glucosamine-6-phosphate synthase (GFAT) isolated from Saccharomyces cerevisiae at concentrations <10 mM; NI means no inhibition

Q: For `NC(CP(=O)(O)O)C(=O)O` (configuration not stated), which inhibition is on record?
A: Its inhibition is “inactive”.

Source: ChEMBL document CHEMBL1135335, “Multisubstrate analogue inhibitors of glucosamine-6-phosphate synthase from Candida albicans” (Bioorg Med Chem Lett, 2002)
